We go through one substance from patent US9028845B2, “Chimeric immunomodulatory compounds and methods of using the same-IV” (Dynavax Technologies Corporation, priority 2001, dated 2015).

In this assay the test system is CD19+ B cells. In words: Human B cell proliferation assay (3H-thymidine incorporation). The conditions noted are these: 2 μg/ml.
Setting [1] is: B cells, Donor 146, Experiment A.
[2] abbreviates: B cells, Donor 147, Experiment A.
The mark [3] stands for this setting: B cells, donor 194, Experiment B.

Description: Purified human B cells from 2 donors were stimulated with 5 μg/ml P-6 or CIC for 96 h. Proliferation was assessed by ^3H-thymidine incorporation.
A CIC is considered to induce “little” human B cell proliferation if B cell proliferation in the presence of the CIC is between greater than 15 to about 30% of P-6.
Human PBMCs were isolated from heparanized blood from two normal subjects. Some PBMCs were held in reserve while the remainder was incubated with CD19+ MACS beads (Miltenyi Biotec). These cells were then passed through a magnet, separating the CD19+ B cells through positive selection. […] B cells were then cultured at 1×10^5/200 μl/well in 96-well round-bottomed plates. In some cases, PBMCs were also cultured, but at 2×10^5/200 μl/well. Cells were stimulated in triplicate with 2 μg/ml polynucleotide or CIC. The culture period was 48 hours at 37° C. At the end of the culture period, the plates were pulsed with ^3H-thymidine, 1 μCi/well, and incubated for an additional 8 hours. Then the plates were harvested using standard liquid scintillation techniques and data was collected in counts per minutes (cpm).

For “5′-TGACTGTGAACGTTCGAGATGA-3′ (SEQ ID NO: 2) [Compound P-6, reference compound]”, the “B cell proliferation, in words” value (48 h plus 8 h 3H-thymidine pulse) is given as “cause B cells to proliferate”. The cpm1 runs as follows: under setting [1], 29280 cpm; under setting [2], 35729 cpm; under setting [3], 13678 cpm. Besides, the cpm2 is reported as 33430 cpm under setting [1], 18032 cpm under setting [2] and 12732 cpm under setting [3]. Further, the cpm3 was 30056 cpm under setting [1], 21166 cpm under setting [2] and 9003 cpm under setting [3]. Besides, the mean cpm stood at 30922 cpm (B cells, Donor 146 mean, Experiment A); 24976 cpm (B cells, Donor 147 mean, Experiment A); 11804 cpm (B cells, donor 194 mean, Experiment B). Besides, the mean of both (B cells, mean of Donors 146 and 147, Experiment A) was determined as 27949 cpm.
